Earlier results in paper PMC6422671 (British Journal of Clinical Pharmacology, 2019).
“Also recorded” adds a separate entry of the source.

Tested on: xanthine oxidase
Parameters: method as in E Michaëlsson et al., manuscript in preparation
Details: in vitro; ref E Michaëlsson et al., manuscript in preparation; cited from earlier work

C[C@@H](N)c1cc(Cl)ccc1Cn1c(=S)[nH]c(=O)c2[nH]ccc21 [AZD4831]
inhibition of xanthine oxidase: does not inhibit; also recorded: is not a substrate or an inhibitor
